From patent publication US20240124545A1, “COMPOSITIONS AND METHODS RELATING TO THE TREATMENT OF DISEASES” (ILC THERAPEUTICS LIMITED, priority 2021, published 2024)
“And” between values parts separate entries of the source, which are not always exact repeats. Equal entries are not always repeated. Where two headings read alike, the source gives them in different places.

Assays:
HeLa-CD4-βgal cells [1] = system: HeLa-CD4-βgal cells
HRSV Long strain = assay: HRSV infectivity assay, immunostaining readout in HEp-2 cells; assay type: cell-based, human respiratory syncytial virus (HRSV) Long strain
HIV-1 LAI [2] = assay: microbe, parasite or virus in culture; details: Human immunodeficiency virus 1, 48 h, read-out: IC50 (infectivity), Control HIV Inhibitors
HIV-1 LAI [3] = details: for HIV Infectivity in HeLa CD4 βgal cells (β-gal units) - antiviral control / HIV Infectivity in HeLa CD4 βgal cells, percentage of vehicle - antiviral control: single data point
in vitro = details: human
HeLa-CD4-βgal cells [4] = assay: XTT viability (cytotoxicity) assay, uninfected HeLa-CD4-βgal cells (Experiment 4); details: for Viability of HeLa-CD4-βgal cells in the XTT assay (percentage values): 48 hours, single data point; for Viability of Uninfected HeLa-CD4-β gal Cells (A490): XTT, raw absorbance 490 nm

## C[S+](C)[O-] [DMSO]
HeLa-CD4-βgal cells [1]
  Viability of Uninfected HeLa-CD4-β gal Cells (% vehicle alone), controls: −0.5 ± 0.1 % vehicle alone

## NC(=O)c1ncn([C@@H]2O[C@H](CO)[C@@H](O)[C@H]2O)n1 [Rib, ribavirin, reference compound]
HRSV Long strain; 50 μM
  HRSV infection blocked by antiviral control: over 99%
HRSV Long strain; control antiviral 50 μM, 72 hours
  HRSV Infectivity in HEp-2 cells (% vehicle): −4.7 % vehicle
HRSV Long strain; control antiviral 50 μM, duplicate A490 values
  HRSV Infectivity in HEp-2 cells - Raw OD- Absorbance (490 nm): 0.195 and 0.176

## CC(C)OC(=O)[C@H](C)N[P@](=O)(CO[C@H](C)Cn1cnc2c(N)ncnc21)Oc1ccccc1 [TAF, tenofovir alafenamide]
HIV-1 LAI [2]
  IC50: 8 nM
HIV-1 LAI [3]; 0.00005 μM
  HIV Infectivity in HeLa CD4 βgal cells (β-gal units) - antiviral control: 1,043,762 RLU
  HIV Infectivity in HeLa CD4 βgal cells, percentage of vehicle - antiviral control: 91.9 % vehicle
HIV-1 LAI [3]; 0.0003 μM
  HIV Infectivity in HeLa CD4 βgal cells (β-gal units) - antiviral control: 1,038,889 RLU
  HIV Infectivity in HeLa CD4 βgal cells, percentage of vehicle - antiviral control: 91.5 % vehicle
HIV-1 LAI [3]; 0.001 μM
  HIV Infectivity in HeLa CD4 βgal cells (β-gal units) - antiviral control: 935,932 RLU
  HIV Infectivity in HeLa CD4 βgal cells, percentage of vehicle - antiviral control: 82.4 % vehicle
HIV-1 LAI [3]; 0.006 μM
  HIV Infectivity in HeLa CD4 βgal cells (β-gal units) - antiviral control: 575,616 RLU
  HIV Infectivity in HeLa CD4 βgal cells, percentage of vehicle - antiviral control: 50.6 % vehicle
HIV-1 LAI [3]; 0.03 μM
  HIV Infectivity in HeLa CD4 βgal cells (β-gal units) - antiviral control: 145,403 RLU
  HIV Infectivity in HeLa CD4 βgal cells, percentage of vehicle - antiviral control: 12.6 % vehicle
HIV-1 LAI [3]; 0.2 μM
  HIV Infectivity in HeLa CD4 βgal cells (β-gal units) - antiviral control: 6,426 RLU
  HIV Infectivity in HeLa CD4 βgal cells, percentage of vehicle - antiviral control: 0.3 % vehicle
HIV-1 LAI [3]; 0.5 μM
  HIV infection blocked by control antivirals: ~100%
HIV-1 LAI [3]; 0.8 μM
  HIV Infectivity in HeLa CD4 βgal cells (β-gal units) - antiviral control: 2,064 RLU
  HIV Infectivity in HeLa CD4 βgal cells, percentage of vehicle - antiviral control: −0.1 % vehicle
HIV-1 LAI [3]; 4.0 μM
  HIV Infectivity in HeLa CD4 βgal cells (β-gal units) - antiviral control: 1,893 RLU
  HIV Infectivity in HeLa CD4 βgal cells, percentage of vehicle - antiviral control: −0.1 % vehicle
HIV-1 LAI [3]; 20 μM
  HIV Infectivity in HeLa CD4 βgal cells (β-gal units) - antiviral control: 1,475 RLU
  HIV Infectivity in HeLa CD4 βgal cells, percentage of vehicle - antiviral control: −0.1 % vehicle
HIV-1 LAI [3]; control antiviral 0.5 μM, duplicate data points
  HIV Infectivity in HeLa-CD4-βgal cells (% vehicle): 0.0 % vehicle
HIV-1 LAI [3]; control antiviral 0.5 μM, individual values
  HIV Infectivity in HeLa CD4 βgal cells (β-galactosidase units): 3,376 RLU and 3,509 RLU
In vitro
  CC50 at 48 h: > 20000 nM
HeLa-CD4-βgal cells [4]; control antiviral 0.00005 μM
  Viability of HeLa-CD4-βgal cells in the XTT assay (percentage values): 111.5%
  Viability of Uninfected HeLa-CD4-β gal Cells (A490): 0.951
HeLa-CD4-βgal cells [4]; control antiviral 0.0003 μM
  Viability of HeLa-CD4-βgal cells in the XTT assay (percentage values): 101.3%
  Viability of Uninfected HeLa-CD4-β gal Cells (A490): 0.872
HeLa-CD4-βgal cells [4]; control antiviral 0.001 μM
  Viability of HeLa-CD4-βgal cells in the XTT assay (percentage values): 104.6%
  Viability of Uninfected HeLa-CD4-β gal Cells (A490): 0.897
HeLa-CD4-βgal cells [4]; control antiviral 0.006 μM
  Viability of HeLa-CD4-βgal cells in the XTT assay (percentage values): 109.1%
  Viability of Uninfected HeLa-CD4-β gal Cells (A490): 0.932
HeLa-CD4-βgal cells [4]; control antiviral 0.03 μM
  Viability of HeLa-CD4-βgal cells in the XTT assay (percentage values): 103.2%
  Viability of Uninfected HeLa-CD4-β gal Cells (A490): 0.886
HeLa-CD4-βgal cells [4]; control antiviral 0.2 μM
  Viability of HeLa-CD4-βgal cells in the XTT assay (percentage values): 104.5%
HeLa-CD4-βgal cells [4]; control antiviral 0.8 μM
  Viability of HeLa-CD4-βgal cells in the XTT assay (percentage values): 101.5%
  Viability of Uninfected HeLa-CD4-β gal Cells (A490): 0.873
HeLa-CD4-βgal cells [4]; control antiviral 4.0 μM
  Viability of HeLa-CD4-βgal cells in the XTT assay (percentage values): 104.1%
  Viability of Uninfected HeLa-CD4-β gal Cells (A490): 0.894
HeLa-CD4-βgal cells [4]; control antiviral 20 μM
  Viability of HeLa-CD4-βgal cells in the XTT assay (percentage values): 88.2%
  Viability of Uninfected HeLa-CD4-β gal Cells (A490): 0.770
